# From patent US7468369B2, “Sulfonyl pyrrolidines, method for producing the same and their use as drugs” (Sanofi-Aventis, priority 2005, dated 2008)
# pEC50: −log10 of the molar value. Structures can show the parent of a compound that is named as a salt. Where two headings read alike, the source gives them in different places.
# System: human ABCA1 promoter
# Experiment: ABCA1 promoter test (luciferase reporter in stably transfected THP1 cell line)
# Format: cell-based
# Settings: ABCA1 reporter cell line (THP1, PMA-differentiated), 24 h incubation, luciferase chemiluminescence, read-out: E50 ABCA1
# Summary of the method: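 PMA-differentiated THP1 macrophages stably carrying a 3.2 kb human ABCA1 promoter-luciferase construct, treated 24 h at 37° C with 11 concentrations ([…] to 330 pM, DMSO <0.1%). Luciferase read by luminescence after lysis; EC50 from dose-response plots.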
SMILES,"pEC50 (Homo sapiens, THP-1)",pEC50
"COc1cccc(S(=O)(=O)N2C[C@@H](C)[C@H](C(=O)N3CCN(c4cc(C)ccc4C)CC3)C2)c1 [Example 91, [3,4-trans-4-(2,5-Dimethylphenyl)piperazin-1-yl]-[1-(3-methoxybenzene-sulfonyl)-4-methylpyrrolidin-3-yl]methanone trifluoroacetate]",5.63,
"Cc1ccc(C)c(N2CCN(C(=O)[C@@H]3CN(S(=O)(=O)c4c(C)noc4C)C[C@H]3Cc3ccccc3)CC2)c1 [Example 93, [3,4-trans-4-Benzyl-1-(3,5-dimethylisoxazole-4-sulfonyl)pyrrolidin-3-yl]-[4-(2,5-dimethylphenyl)piperazin-1-yl]methanone trifluoroacetate]",5.61,
"COc1cccc(S(=O)(=O)N2C[C@@H](Cc3ccccc3)[C@H](C(=O)N3CCN(c4cc(C)ccc4C)CC3)C2)c1 [Example 94, [3,4-trans-4-Benzyl-1-(3-methoxybenzenesulfonyl)pyrrolidin-3-yl]-[4-(2,5-dimethylphenyl)piperazin-1-yl]methanone trifluoroacetate]",5.53,
"Cc1ccc(C)c(N2CCN(C(=O)[C@@H]3CN(S(=O)(=O)c4c(C)noc4C)C[C@H]3C(C)C)CC2)c1 [Example 95, [1-(3,5-Dimethyl isoxazole-4-sulfonyl)-3,4-trans-4-isopropylpyrrolidin-3-yl]-[4-(2,5-dimethylphenyl)piperazin-1-yl]methanone trifluoroacetate]",5.34,
"COc1cccc(S(=O)(=O)N2C[C@@H](C(=O)N3CCN(c4cc(C)ccc4C)CC3)[C@H](C(C)C)C2)c1 [Example 96, [4-(2,5-Dimethylphenyl)piperazin-1-yl]-[3,4-trans-4-isopropyl-1-(3-methoxy-benzenesulfonyl)pyrrolidin-3-yl]methanone trifluoroacetate]",5.44,
"Cc1ccc(C)c(N2CCN(C(=O)[C@@H]3CN(S(=O)(=O)c4c(C)noc4C)C[C@H]3c3ccccc3C)CC2)c1 [Example 98, [1-(3,5-Dimethylisoxazole-4-sulfonyl)-3,4-trans-4-o-tolylpyrrolidin-3-yl]-[4-(2,5-dimethylphenyl)piperazin-1-yl]methanone trifluoroacetate]",6.40,
"COc1cccc(S(=O)(=O)N2C[C@@H](C(=O)N3CCN(c4cc(C)ccc4C)CC3)[C@H](c3ccccc3C)C2)c1 [Example 99, [4-(2,5-Dimethylphenyl)piperazin-1-yl]-[1-(3-methoxybenzenesulfonyl)-3,4-trans-4-o-tolylpyrrolidin-3-yl]methanone trifluoroacetate]",6.15,
"Cc1ccc(C)c(N2CCN(C(=O)[C@@H]3CN(S(=O)(=O)c4cccnc4)C[C@H]3c3ccccc3C)CC2)c1 [Example 100, [4-(2,5-Dimethylphenyl)piperazin-1-yl]-[1-(pyridine-3-sulfonyl)-3,4-trans-4-o-tolylpyrrolidin-3-yl]methanone trifluoroacetate]",5.87,
"Cc1cccc([C@@H]2CN(S(=O)(=O)c3c(C)noc3C)C[C@H]2C(=O)N2CCN(c3cc(C)ccc3C)CC2)c1 [Example 101, [1-(3,5-Dimethylisoxazole-4-sulfonyl)-3,4-trans-4-m-tolylpyrrolidin-3-yl]-[4-(2,5-dimethylphenyl)piperazin-1-yl]methanone trifluoroacetate]",5.73,
"COc1cccc(S(=O)(=O)N2C[C@@H](C(=O)N3CCN(c4cc(C)ccc4C)CC3)[C@H](c3cccc(C)c3)C2)c1 [Example 102, [4-(2,5-Dimethylphenyl)piperazin-1-yl]-[1-(3-methoxybenzenesulfonyl)-3,4-trans-4-m-tolylpyrrolidin-3-yl]methanone trifluoroacetate]",5.98,
"COc1cccc(S(=O)(=O)N2C[C@@H](C(=O)N3CCN(c4cc(C)ccc4C)CC3)[C@H](c3c(C)noc3C)C2)c1 [Example 104, [3,4-trans-4-(3,5-Dimethylisoxazol-4-yl)-1-(3-methoxybenzenesulfonyl)-pyrrolidin-3-yl]-[4-(2,5-dimethylphenyl)piperazin-1-yl]methanone trifluoroacetate]",5.20,
"Cc1ccc(C)c(N2CCN(C(=O)[C@@H]3CN(S(=O)(=O)c4c(C)noc4C)C[C@H]3c3c(C)cccc3C)CC2)c1 [Example 106, [1-(3,5-Dimethylisoxazole-4-sulfonyl)-3,4-trans-4-(2,6-dimethylphenyl)pyrrolidin-3-yl]-[4-(2,5-dimethylphenyl)piperazin-1-yl]methanone trifluoroacetate]",6.43,
"Cc1ccc(C)c(N2CCN(C(=O)[C@@H]3CN(S(=O)(=O)c4c(C)noc4C)C[C@H]3c3cccc4c3OCO4)CC2)c1 [Example 108, [3,4-trans-4-Benzo[1,3]dioxol-4-yl-1-(3,5-dimethylisoxazole-4-sulfonyl)-pyrrolidin-3-yl]-[4-(2,5-dimethylphenyl)piperazin-1-yl]methanone trifluoroacetate]",6.23,
"COc1cccc(S(=O)(=O)N2CC(C(=O)N3CCN(c4cc(C)ccc4C)CC3)C(c3ccsc3)C2)c1 (stereo not drawn) [Example 110, [4-(2,5-Dimethylphenyl)piperazin-1-yl]-[1-(3-methoxybenzenesulfonyl)-3,4-trans-4-thiophen-3-ylpyrrolidin-3-yl]methanone trifluoroacetate]",,6.04
"Cc1ccc(C)c(N2CCN(C(=O)[C@@H]3CN(S(=O)(=O)c4c(C)noc4C)C[C@H]3c3ccsc3)CC2)c1 [Example 111, [1-(3,5-Dimethylisoxazole-4-sulfonyl)-3,4-trans-4-thiophen-3-ylpyrrolidin-3-yl]-[4-(2,5-dimethylphenyl)piperazin-1-yl]methanone trifluoroacetate]",6.06,
"Cc1ccc(C)c(N2CCN(C(=O)[C@@H]3CN(S(=O)(=O)c4c(C)noc4C)C[C@H]3c3cccnc3)CC2)c1 [Example 112, [1-(3,5-Dimethylisoxazole-4-sulfonyl)-3,4-trans-4-pyridin-3-ylpyrrolidin-3-yl]-[4-(2,5-dimethylphenyl)piperazin-1-yl]methanone trifluoroacetate]",4.84,
"COc1cccc(S(=O)(=O)N2C[C@@H](C(=O)N3CCN(c4cc(C)ccc4C)CC3)[C@H](c3ccoc3)C2)c1 [Example 114, [4-(2,5-Dimethylphenyl)piperazin-1-yl]-[3,4-trans-4-furan-3-yl-1-(3-methoxybenzenesulfonyl)pyrrolidin-3-yl]methanone trifluoroacetate]",5.67,
"Cc1ccc(C)c(N2CCN(C(=O)[C@@H]3CN(S(=O)(=O)c4c(C)noc4C)C[C@H]3c3ccoc3)CC2)c1 [Example 115, [1-(3,5-Dimethylisoxazole-4-sulfonyl)-3,4-trans-4-furan-3-ylpyrrolidin-3-yl]-[4-(2,5-dimethylphenyl)piperazin-1-yl]methanone trifluoroacetate]",5.58,
"Cc1ccc(C)c(N2CCN(C(=O)[C@@H]3CN(S(=O)(=O)c4cccnc4)C[C@H]3c3ccoc3)CC2)c1 [Example 116, [4-(2,5-Dimethylphenyl)piperazin-1-yl]-[3,4-trans-4-furan-3-yl-1-(pyridine-3-sulfonyl)pyrrolidin-3-yl]methanone trifluoroacetate]",4.97,
"Cc1ccc(C)c(N2CCN(C(=O)[C@H]3CN(S(=O)(=O)c4c(C)noc4C)C[C@H]3c3ccccc3)CC2)c1 [Example 118, [1-(3,5-Dimethylisoxazole-4-sulfonyl)-3,4-cis-4-phenylpyrrolidin-3-yl]-[4-(2,5-dimethylphenyl)piperazin-1-yl]methanone trifluoroacetate]",6.46,
"COc1cccc(S(=O)(=O)N2C[C@H](C(=O)N3CCN(c4cc(C)ccc4C)CC3)[C@H](c3ccccc3)C2)c1 [Example 119, [4-(2,5-Dimethylphenyl)piperazin-1-yl]-[1-(3-methoxybenzenesulfonyl)-3,4-cis-4-phenylpyrrolidin-3-yl]methanone trifluoroacetate]",6.75,
"Cc1ccc(C)c(N2CCN(C(=O)[C@H]3CN(S(=O)(=O)c4cccnc4)C[C@H]3c3ccccc3)CC2)c1 [Example 120, [4-(2,5-Dimethylphenyl)piperazin-1-yl]-[3,4-cis-4-phenyl-1-(pyridine-3-sulfonyl)pyrrolidin-3-yl]methanone trifluoroacetate]",6.40,
